Patent US20170215419A1, “ANTHRANILAMIDE SEED TREATMENT COMPOSITIONS AND METHODS OF USE” (priority 2014, published 2017)

Key:
[1] = tested on: black cutworms; assay: Cutworm mortality and residual control, leaf feeding bioassay on leaves from treated corn seed (Table 3); assay type: in vivo, Agrotis ipsilon
Procedure: (§1) Efficacy of chlorantraniliprole against high pressure of black cutworms, and plant stand protection (15 DAP) was tested (FIG. 5). In addition, efficacy of chlorantraniliprole for healthier stand and longer seedling protection against black cutworms (9 DAI) was also tested (FIG. 6). See also Tables 3 and 4 for increased mortality rates of cutworms with chlorantraniliprole alone and in combination with other insecticides. Mortality of 3rd instar black cutworms, which were exposed to corn leaf samples in in-vivo leaf feeding bioassays, was recorded at specific evaluation dates. The leaf samples were collected from treated corn seed according to the treatment in Tables 3-4.
(§2) All treatments included a combination of fungicides (Fludioxonil, Mefenoxam, Azoxystrobin, Thiabendazole). Soil Texture was fine clay loam; insect species: Agrotis ipsilon; infestation: 2, 3rd instar larva/plant; Plot size: 6 rows×20 feet; Seeding rate: 39,000/acre; Experimental design: Randomized Complete Block (RCB); 9 trtms×4 rep.

[2] = tested on: black cutworms; assay: Black cutworm mortality after 10 DAI, leaf feeding bioassay (Table 4); assay type: in vivo, Agrotis ipsilon
Procedure: as §1

[3] = tested on: wireworm; assay: Corn yield, stand and runts on fields with wireworm pressure (Tables 5, 6); assay type: in vivo; details: for Yield bu/ac: 250 μg AI/seed
[4] = tested on: wireworm; assay: Field efficacy against wireworm and impact on corn yield, vigor and stand (FIG. 1, 2); assay type: in vivo
Procedure: Efficacy of chlorantraniliprole against wireworm (30 DAP) and impact on corn yield were tested (FIG. 1) based on data from 4 Locations. Unless indicated otherwise in this Example or in any other Example herein, “BASE ST” included Fludioxonil, Mefenoxam, Azoxystrobin, Thiabendazole (fungicides), Thiamethoxam (insecticide) and biological amendments (B. subtilis, and B. simplex). The BASE ST may also include other fungicides.
Efficacy of chlorantraniliprole was also tested against high wireworm pressure locations for plant vigor and yield and stand protection (FIG. 2 A-B). “FST” indicates fungicide seed treatment.
The chlorantraniliprole was applied at a concentration of 0.25 mg ai/seed and other commercially available insecticides and/or fungicides were applied at the labeled rates. […] In an embodiment, the BASE ST included thiamethoxam at 250 μg AI/seed.

[5] = tested on: wireworms; assay: Growth chamber wireworm bioassay on treated corn seed (FIG. 9); assay type: in vivo, Melanotus spp.; details: 250 to 750 μg AI/seed; corn at V3-V4; vs untreated check
Procedure: In addition, the efficacy of corn seed treated with chlorantraniliprole to protect seeds and seedlings from soil pests such as wireworms was determined at a growth chamber. A total of 8 repetitions were conducted and the following evaluations were observed:
Evaluations: 1. Emergence; 2. Wireworm damaged plants; 4. Wireworm mortality; 5. Fresh plan weight
Bioassays were conducted in a growth chamber in using field-collected Melanotus spp. wireworms. […] weighted wireworms were individually placed into plastic pots containing filtered field-collected soil and one corn seed for a total of 48 wireworms in 8 pots for each treatment The containers were maintained at 20±2° C., 40 to 70% RH, and a photoperiod of 10:14 (L:D), and were watered daily.
The following seed treatment combinations were used and the results are shown in FIG. 9: Chlorantraniliprole at 250 to 750 μg AI/seed; thiamethoxam (IST) at 250 μg AI/seed; and clothianidin (+Bacillus firmus 1-1582) at 1250 μg AI/seed.

[6] = tested on: black cutworms; assay: Field efficacy against high pressure of black cutworms, plant stand protection (FIG. 5, 6); assay type: in vivo, Agrotis ipsilon
Procedure: as §1, §2

[7] = tested on: white grub; assay: Efficacy against white grub and impact on corn yield (FIG. 3, 4); assay type: in vivo, Japanese Beetle larvae; details: added to BASE ST, compared to BASE ST alone
[8] = seed treatment 500 μg AI/seed (clothianidin 500)
[9] = Table 6, fields with constant wireworm pressure, N = 7
[10] = seed treatment 250 μg AI/seed, 3rd instar black cutworms on corn leaf samples
[11] = seed treatment 250 μg AI/seed, residual control
[12] = added to BASE ST, compared to FST alone, high wireworm pressure

CN/C(=N\[N+](=O)[O-])NCc1cnc(Cl)s1 [Clothianidin, reference compound]
Mortality % 12 DAP [1, 8]: 97.92% | Mortality % 39 DAP [1, 8]: 25.00% | Mortality % [2, 8]: 93.75%

CN1COCN(Cc2cnc(Cl)s2)/C1=N\[N+](=O)[O-] [Thiamethoxam, reference compound]
Yield bu/ac [3, 9]: 173.3 bu/ac | runts ([3]; seedling stage, wireworms, each active at 250 μg AI/seed): 8.8% | Mortality % 12 DAP [1, 10]: 95.83% | Mortality % 39 DAP [1, 11]: 31.25% | Mortality % ([2]; seed treatment 250 μg AI/seed): 22.92%

CNC(=O)c1cc(Cl)cc(C)c1NC(=O)c1cc(Br)nn1-c1ncccc1Cl [Chlorantraniliprole, 3-bromo-N-[4-chloro-2-methyl-6-[(methylamino)carbonyl]phenyl]-1-(3-chloro-2-pyridinyl)-1H-pyrazole-5-carboxamide]
Yield bu/ac ([3]; Table 5, fields with wireworm pressure): 172.3 bu/ac | Yield bu/ac [3, 9]: 164.3 bu/ac | corn grain yield ([3]; locations with wireworm infestations, chlorantraniliprole 250 to 750 μg AI/seed alone or with thiamethoxam 250 μg AI/seed): increased corn grain yield | corn yield ([4]; 0.25 mg ai/seed added to BASE ST, compared to BASE ST alone): yield increase | wireworm count per 10 plants ([4]; 0.25 mg ai/seed added to BASE ST, compared to BASE ST alone, 30 DAP, 4 locations): significantly reduced | plant vigor [4, 12]: significantly increased | stand protection [4, 12]: protected stand | yield ([4]; added to BASE ST, compared to FST alone, high wireworm pressure (FIG. 2A)): increased significantly | fresh plant weight [5]: significantly higher plant weight than the untreated check/control | Mortality % 12 DAP [1, 10]: 100.00% | Mortality % 39 DAP [1, 11]: 32.95% | Mortality % 12 DAP [1, 8]: 100.00% | Mortality % 39 DAP [1, 8]: 31.25% | Mortality % 12 DAP ([1]; seed treatment 750 μg AI/seed): 100.00% | Mortality % 39 DAP ([1]; seed treatment 750 μg AI/seed): 21.11% | Mortality % ([2]; seed treatment 250 μg AI/seed): 100.00% | Mortality % [2, 8]: 100.00% | Mortality % ([2]; seed treatment 750 μg AI/seed): 100.00% | stand and seedling protection against black cutworms ([6]; 9 DAI (FIG. 6)): increased healthier stand and longer seedling protection | reduction in plant mortality ([6]; compared to FST alone, black cutworm): 62% | black cutworm damage to corn plants ([6]; high black cutworm pressure, 15 DAP): significantly reduced | grain yield [7]: increased grain yield | white grub count per 10 plants ([7]; 30 DAP, 3 locations): significantly reduced
